Assay results published in ChEMBL document CHEMBL1131840, “Structure-based design and synthesis of a novel class of Src SH2 inhibitors” (Bioorg Med Chem Lett, 1999).

How the values were obtained:
[1] = target: T1, Proto-oncogene tyrosine-protein kinase Src (Homo sapiens, UniProt P12931); test: Inhibition of binding to Src SH2 domain
[2] = target: T1, Proto-oncogene tyrosine-protein kinase Src; test: Binding affinity for Src SH2 domain

T1 sequence (P12931 2-536 limits assumed): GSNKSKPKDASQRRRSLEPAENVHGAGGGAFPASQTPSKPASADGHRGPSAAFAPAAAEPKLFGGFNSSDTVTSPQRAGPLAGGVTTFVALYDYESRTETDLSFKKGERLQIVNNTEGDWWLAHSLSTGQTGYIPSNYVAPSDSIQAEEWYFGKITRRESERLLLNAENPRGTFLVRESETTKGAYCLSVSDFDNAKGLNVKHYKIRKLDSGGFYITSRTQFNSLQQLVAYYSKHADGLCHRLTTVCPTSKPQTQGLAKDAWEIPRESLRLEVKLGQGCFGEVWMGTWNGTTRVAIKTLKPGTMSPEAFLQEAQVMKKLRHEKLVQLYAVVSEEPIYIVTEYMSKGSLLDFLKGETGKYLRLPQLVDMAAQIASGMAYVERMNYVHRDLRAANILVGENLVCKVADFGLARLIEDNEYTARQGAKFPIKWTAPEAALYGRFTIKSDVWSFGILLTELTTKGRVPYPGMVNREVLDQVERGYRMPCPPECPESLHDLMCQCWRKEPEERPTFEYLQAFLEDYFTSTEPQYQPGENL

## CC(=O)N[C@@H](Cc1ccc(OP(=O)(O)O)cc1)C(=O)NCc1cccc(CC2CCCCC2)c1
[1]
  IC50: 769 µM

## CC[C@H](C)[C@H](NC(=O)[C@H](CCC(=O)O)NC(=O)[C@H](CCC(=O)O)NC(=O)[C@@H](N)Cc1ccc(OP(=O)(O)O)cc1)C(=O)O
[2]
  Kd: 0.1 µM

## CC[C@H](NC(=O)[C@H](Cc1ccc(OP(=O)(O)O)cc1)NC(C)=O)c1cccc(CC2CCCCC2)c1
[1]
  IC50: 306 µM
